SMILES strings stand for the structures.

One assay concerns the target T1, human CCR-3 (Homo sapiens, UniProt P51677).
T1 construct: expressed in transfected cells; membrane preparation
T1 sequence (P51677 1-355): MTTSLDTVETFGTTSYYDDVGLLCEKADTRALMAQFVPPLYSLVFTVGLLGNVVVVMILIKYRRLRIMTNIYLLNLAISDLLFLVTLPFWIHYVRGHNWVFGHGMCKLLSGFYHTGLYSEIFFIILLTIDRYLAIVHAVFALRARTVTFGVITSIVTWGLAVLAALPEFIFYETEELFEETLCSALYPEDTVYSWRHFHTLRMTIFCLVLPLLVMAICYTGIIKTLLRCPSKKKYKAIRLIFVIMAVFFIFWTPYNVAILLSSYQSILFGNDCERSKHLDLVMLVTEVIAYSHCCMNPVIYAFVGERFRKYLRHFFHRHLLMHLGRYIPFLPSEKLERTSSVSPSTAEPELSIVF
Briefly: binding of [125I]-human eotaxin to human CCR-3 (SPA, membranes of RBL-2H3 cells expressing CCR3). The settings on record: 4 hours at room temperature, read-out: IC50 (inhibition of binding of eotaxin to CCR-3). As to the method:
In this assay the effect of the compounds of the present invention on the binding of human eotaxin to human CCR-3 is determined. Recombinant cells expressing human CCR-3 are captured by wheatgerm agglutinin (WGA) polyvinyltoluidene (PVT) SPA beads (available from Amersham), through a specific interaction between the WGA and carbohydrate residues of glycoproteins on the surface of the cells. [^125I]-human eotaxin (available from Amersham) binds specifically to CCR-3 receptors bringing the [^125I]-human eotaxin in close proximity to the SPA beads. Emitted â-particles from the [^125I]-human eotaxin excite, by its proximity, the fluorophore in the beads and produce light.
Preparation of Assay Buffer. 5.96 g HEPES and 7.0 g sodium chloride are dissolved in distilled H2O and 1M aq. CaCl2 (1 ml) and 1M aq. MgCl2 (5 ml) are added. The pH is adjusted to 7.6 with NaOH and the solution made to a final volume of 1 L using distilled H2O. 5 g of bovine serum albumin and 0.1 g NaN3 are dissolved in the solution and the resulting buffer stored at 4° C. […]
The assay is performed in a final volume of 250 μl per well of an Optiplate™ microplate (ex Canberra Packard). […] The resulting scintillations are counted using a Canberra Packard TopCount™ scintillation counter, each well being counted for 1 minute. […]

Assay [1] addresses alpha-1 adrenergic receptor. Description: alpha-1 adrenergic receptor radioligand binding assay ([125I]-HEAT, rat cerebral cortex membranes). The settings on record: radioligand used at 40 pM. Here is the method:
The inhibitory properties of the compounds of the present invention on binding of the alpha-1 adrenergic receptor can be determined in the following assay:
Cerebral cortices from male Sprague-Dawley rats (175-200 g) are dissected and homogenised in 10 volumes of ice cold 0.32 M sucrose (containing 1 mM MgCl2 dihydrate and 1 mM K2HPO4) with a glass/Teflon homogeniser. The membranes are centrifuged at 1000×g for 15 minutes, the pellet discarded and the centrifugation repeated. The supernatants are pooled and centrifuged at 18,000×g for 15 minutes. The pellet is osmotically shocked in 10 volumes of H2O and kept on ice for 30 minutes. The suspension is centrifuged at 39,000×g for 20 minutes, resuspended in Krebs-Henseleit buffer pH 7.4 (1.17 mM MgSO4 anhydrous, 4.69 mM KCl, 0.7 mM K2HPO4 anhydrous, 0.11 M NaCl, 11 mM D-glucose and 25 mM NaHCO3) containing 20 mM Tris, and kept for 2 days at −20° C. […]
The resulting membranes are subjected to a radioligand binding assay. […] Following drying of the plates for 3 h. at 50° C., 40 μl of Microscint 20 is added to each well, the plates incubated at room temperature for a further 20 minutes and the retained radioactivity quantified in a Packard TopCount NXT™ scintillation counter. […]

A word on the IC50: it is the concentration that gives 50% inhibition. Regarding `CN(CCCCNC(=O)Nc1cccc(-c2nnnn2C)c1)Cc1ccc(F)cc1` [Example 1, 1-{4-[(4-Fluorobenzyl)-methylamino]butyl}-3-[3-(1-methyl-1H-tetrazol-5-yl)phenyl]-urea], the IC50 at human CCR-3 was ~6 nM.
The Kd is a measure of binding affinity in units of concentration. Read a low Kd as tighter binding. The molecule `O=C1c2ccccc2CCC1CNCCc1ccc(O)c(I)c1` (centres unmarked) [[^125I]-HEAT] had a Kd in assay [1] of 0.0589 ± 0.0187 nM.

For the origin of these results see patent US20080306067A1, “Modulators of Chemokine Receptor Activity” (priority 2005, published 2008).
